Experimental data as given in patent US10968184B2, “Pyrimidine prodrugs for the treatment of viral infections and further diseases” (Janssen Sciences Ireland Unlimited Company, priority 2016, dated 2021).

Legend:
in vitro [1] = conditions: human, liver microsomes
in vitro [2] = conditions: human, plasma
in vitro [3] = conditions: rat, liver microsomes
in vitro [4] = conditions: simulated gi fluid
in vitro [5] = conditions: human, hepatocytes
in vitro [6] = conditions: rat, hepatocytes
in vitro [7] = conditions: simulated gi fluid; remark: listed apart in the source
[8] = Pharmacokinetics in rat after oral administration; assay type: in vivo; conditions: SD rats, aqueous solution, 5 mg/kg eq dose, prodrug in plasma; for AUC(0-t): read-out: AUC(0-last) prodrug
Description: Pharmacokinetics in rat. Prodrugs were administered orally to SD rats using aqueous solution at 5 mg/kg eq dose. Plasma samples were collected at different time points and the concentration of parent and prodrug was analyzed using LC-MS/MS. PK parameters were calculated using Phoenix WinNonlin 6.3. Cmax (ng/mL) and AUC(0-last) (ng·h/mL) were determined for both prodrug and parent.

in vitro [9] = conditions: rat, plasma
[10] = tested on: P-glycoprotein (human MDR1); experiment: in vitro; conditions: dog, MDCK-MDR1

Row | melting point [°C] | microsomal CLint at 1 μM (in vitro [1]) [µL/min/mg] | half-life at 1 μM (in vitro [2]) [h] | microsomal CLint at 1 μM (in vitro [3]) [µL/min/mg] | half-life (in vitro [4]) [h] | hepatocyte CLint at 1 μM (in vitro [5]) [µL/min/1e6 cells] | hepatocyte CLint at 1 μM (in vitro [6]) [µL/min/1e6 cells] | half-life (in vitro [7]) [h] | Cmax [8] [ng/mL] | AUC(0-t) [8] [ng·h/mL] | half-life at 1 μM (in vitro [9]) [h] | Papp A→B [10] [×10⁻⁶ cm/s] | efflux ratio [10] | SMILES
1 | 86.1 | 14 | > 30 | 141 | > 6 | 80 | 280 | > 6 | 88 | 144 | > 30 | 20 | 3.2 | CCCC[C@H](CO)Nc1nc(N(C)C)ncc1OC [Compound 5, (R)-2-((2-(dimethylamino)-5-methoxypyrimidin-4-yl)amino)hexan-1-ol]
2 |  | 18 | > 30 | 25 | > 6 | 33 | 120 | > 6 | 129 | 206 | > 30 | 6.8 | 10 | CCCC[C@H](CO)Nc1nc(NC)ncc1OC [Compound 6]
3 |  | 115 | < 0.4 | 27 |  |  |  |  |  |  | < 0.4 |  |  | CCCC[C@H](CO)Nc1nc(NC2CCCO2)ncc1OC (stereo partly drawn) [Compound 9, (2R)-2-((5-methoxy-2-((tetrahydrofuran-2-yl)amino)pyrimidin-4-yl)-amino)hexan-1-ol]
4 |  | 88 to 90 | 1.4 | > 347 |  |  |  |  |  |  | 1.4 | 1.8 | 33 | CCCC[C@H](CO)Nc1nc(NC2CCCCO2)ncc1OC (stereo partly drawn) [Compound 10, (2R)-2-((5-methoxy-2-((tetrahydro-2H-pyran-2-yl)amino)pyrimidin-4-yl)-amino)hexan-1-ol]
